Experimental data published in patent publication US20030087887A1, “Novel fusidic acid derivatives” (priority 2001, published 2003).
In brackets after ≈: the same amount, converted by molar mass.

How the values were obtained:
Type in all cases: cell-based
S. aureus CJ247 = assay: MIC, agar diffusion, S. aureus CJ247; settings: Staphylococcus aureus, read-out: in vitro activities MIC
Excerpt: (§1) In vitro investigations have shown a relatively high potency of compounds of the invention against all bacteria including gram-positive and gram-negative strains (Staphylococci, Streptococci, Corynebacteriae, Mycobacteriae, Proteus, Propionibacterium, Pseudomonas, Neisseriae, E. coli) and fungal strains (Candida and Aspergillus). […] In addition, the studies of post-antibiotic effects point towards a strong bactericidal effect of the compounds of the invention. […] The potency of new polyaminated fusidic acid analogues is estimated by comparing the inhibition of growth of different microorganisms produced by known concentrations of the analogue to be examined and a reference compound such as fusidic acid. The microbiological assay set up is in agreement with the European Pharmacopoeia 3rd edition (1997). It is an agar diffusion method where the same volume of the tested solution is added to cavities in agar. The inhibition zones are function of the concentration of the fusidic acid analogue used. All assays are run with fusidic acid as reference substance.

S. aureus CJ200 = assay: MIC, agar diffusion, S. aureus CJ200; settings: Staphylococcus aureus, read-out: in vitro activities MIC
Excerpt: as §1

S. aureus CJ234F = assay: MIC, agar diffusion, S. aureus CJ234F; settings: Staphylococcus aureus; S. aureus CJ234F (MRSA, Fus. resistant); read-out: in vitro activities MIC
Excerpt: as §1

S. aureus N6 = assay: MIC, agar diffusion, S. aureus N6; settings: Staphylococcus aureus; S. aureus N6 (Fus. resistant); read-out: in vitro activities MIC
Excerpt: as §1

S. epidermis CK5 = assay: MIC, agar diffusion, S. epidermis CK5; settings: Staphylococcus epidermidis, read-out: in vitro activities MIC
Excerpt: as §1

[1] = tested on: Propionibacterium acnes FN33; assay: MIC, agar diffusion, Propionibacterium acnes FN33; settings: Cutibacterium acnes, read-out: in vitro activities MIC
Excerpt: as §1

[2] = tested on: Corynebacterium xerosis FF; assay: MIC, agar diffusion, Corynebacterium xerosis FF; settings: read-out: in vitro activities MIC
Excerpt: as §1

[3] = tested on: Streptococcus pyogenes EC88; assay: MIC, agar diffusion, Streptococcus pyogenes EC88; settings: read-out: in vitro activities MIC
Excerpt: as §1

[4] = tested on: Streptococcus faecium EI19; assay: MIC, agar diffusion, Streptococcus faecium EI19; settings: Enterococcus faecium; Streptococcus faecium EI19 (Penicillin resistant); read-out: in vitro activities MIC
Excerpt: as §1

E. coli HA165 = assay: MIC, agar diffusion, E. coli HA165; settings: Escherichia coli, read-out: in vitro activities MIC
Excerpt: as §1

[5] = tested on: Saccaromyces cervisiae ZZ7; assay: MIC, agar diffusion, Saccaromyces cervisiae ZZ7; settings: Saccharomyces cerevisiae, read-out: in vitro activities MIC
Excerpt: as §1

Candida albicans ZA = assay: MIC, agar diffusion, Candida albicans ZA; settings: read-out: in vitro activities MIC
Excerpt: as §1

Asbergillus niger ZM35 = assay: MIC, agar diffusion, Asbergillus niger ZM35; settings: Aspergillus niger, read-out: in vitro activities MIC
Excerpt: as §1

[6] = tested on: Pseudomonas aeruginosa BA17; assay: MIC, agar diffusion, Pseudomonas aeruginosa BA17; settings: read-out: in vitro activities MIC
Excerpt: as §1

Row | SMILES | MIC (S. aureus CJ247) [µg/mL] | MIC (S. aureus CJ200) [µg/mL] | MIC (S. aureus CJ234F) [µg/mL] | MIC (S. aureus N6) [µg/mL] | MIC (S. epidermis CK5) [µg/mL] | MIC [1] [µg/mL] | MIC [2] [µg/mL] | MIC [3] [µg/mL] | MIC [4] [µg/mL] | MIC (E. coli HA165) [µg/mL] | MIC [5] [µg/mL] | MIC (Candida albicans ZA) [µg/mL] | MIC (Asbergillus niger ZM35) [µg/mL] | MIC [6] [µg/mL]
1 | CC(=O)O[C@H]1C[C@@]2(C)C(C[C@@H](O)C3[C@@]4(C)CC[C@@H](O)[C@@H](C)C4CC[C@@]32C)[C@@H]1[C@H](CCCC(C)C)C(=O)NCCCCNCCCN (stereo partly drawn) [Compound 121, 21-N-{4′-[(3′-aminopropyl)amino]butyl}-17R,20S,24,25-tetrahydrofusid-21-amide] | 4 (≈ 6.17 µM) | 4 (≈ 6.17 µM) | 4 (≈ 6.17 µM) | 16 (≈ 24.7 µM) | 4 (≈ 6.17 µM) | 4 (≈ 6.17 µM) | 4 (≈ 6.17 µM) | 16 (≈ 24.7 µM) | 16 (≈ 24.7 µM) | 16 (≈ 24.7 µM) | 16 (≈ 24.7 µM) | 16 (≈ 24.7 µM) | 64 (≈ 98.8 µM) | 
2 | CC(=O)O[C@H]1C[C@@]2(C)C(C[C@@H](O)C3[C@@]4(C)CC[C@@H](O)[C@@H](C)C4CC[C@@]32C)[C@@H]1[C@H](CCCC(C)C)C(=O)NCCCCNCCCNCCCCN (stereo partly drawn) [Compound 123, 21-N-[4′-({3′-[(4′-aminobutyl)amino]propyl}amino)butyl]-17R,20S,24,25-tetrahydrofasid-21-amide] | 4 (≈ 5.56 µM) | 4 (≈ 5.56 µM) | 4 (≈ 5.56 µM) | 4 (≈ 5.56 µM) | 4 (≈ 5.56 µM) | 4 (≈ 5.56 µM) | 4 (≈ 5.56 µM) | 4 (≈ 5.56 µM) | 4 (≈ 5.56 µM) | 16 (≈ 22.2 µM) | 16 (≈ 22.2 µM) | 16 (≈ 22.2 µM) | 4 (≈ 5.56 µM) | 16 (≈ 22.2 µM)
3 | CC(=O)O[C@H]1C[C@@]2(C)C(C[C@@H](O)C3[C@@]4(C)CC[C@@H](O)[C@@H](C)C4CC[C@@]32C)[C@@H]1[C@H](CCCC(C)C)C(=O)NCCCNCCCCNCCCN (stereo partly drawn) [Compound 125, 21-N-[3′-({4′-[(3′-aminopropyl)amino]butyl}amino)propyl]-17R,20S,24,25-tetrahydrofusid-21-amide] | 1 (≈ 1.42 µM) | 1 (≈ 1.42 µM) | 1 (≈ 1.42 µM) | 1 (≈ 1.42 µM) | 1 (≈ 1.42 µM) | 1 (≈ 1.42 µM) | 1 (≈ 1.42 µM) | 4 (≈ 5.67 µM) | 16 (≈ 22.7 µM) | 16 (≈ 22.7 µM) | 16 (≈ 22.7 µM) | 16 (≈ 22.7 µM) | 16 (≈ 22.7 µM) | 16 (≈ 22.7 µM)
4 | CC(=O)O[C@H]1C[C@@]2(C)C(CCC3[C@@]4(C)CC[C@@H](O)[C@@H](C)C4CC[C@@]32C)[C@@H]1[C@H](CCCC(C)C)C(=O)NCCCNCCCN (some centres unmarked) [Compound 131] | 4 (≈ 6.47 µM) | 4 (≈ 6.47 µM) | 4 (≈ 6.47 µM) | 4 (≈ 6.47 µM) | 4 (≈ 6.47 µM) | 4 (≈ 6.47 µM) | 4 (≈ 6.47 µM) | 4 (≈ 6.47 µM) | 4 (≈ 6.47 µM) | 16 (≈ 25.9 µM) | 16 (≈ 25.9 µM) | 16 (≈ 25.9 µM) | 16 (≈ 25.9 µM) | 4 (≈ 6.47 µM)
5 | CC(=O)O[C@H]1C[C@@]2(C)C(CCC3[C@@]4(C)CC[C@@H](O)[C@@H](C)C4CC[C@@]32C)[C@@H]1[C@H](CCCC(C)C)C(=O)NCCNCCCNCCN (some centres unmarked) [Compound 133] | 4 (≈ 6.18 µM) | 4 (≈ 6.18 µM) | 4 (≈ 6.18 µM) | 4 (≈ 6.18 µM) | 4 (≈ 6.18 µM) | 4 (≈ 6.18 µM) | 4 (≈ 6.18 µM) | 4 (≈ 6.18 µM) | 4 (≈ 6.18 µM) | 16 (≈ 24.7 µM) | 32 (≈ 49.5 µM) | 32 (≈ 49.5 µM) | 32 (≈ 49.5 µM) | 16 (≈ 24.7 µM)
6 | CC(C)CCCC(C(=O)NCCCNCCCCNCCCN)[C@@H]1CC[C@@]2(C)C1C[C@@H](O)C1[C@@]3(C)CC[C@@H](O)[C@@H](C)C3CC[C@@]12C (stereo partly drawn) [Compound 146, 21-N-{[3′-({4′-[(3′-aminopropyl)amino]butyl}amino)propyl]}-16-desacetoxy-17R,20S,24,25-tetrahydrofusid-21-amide] | 1 (≈ 1.55 µM) | 1 (≈ 1.55 µM) | 1 (≈ 1.55 µM) | 1 (≈ 1.55 µM) | 1 (≈ 1.55 µM) | 1 (≈ 1.55 µM) | 1 (≈ 1.55 µM) | 1 (≈ 1.55 µM) | 1 (≈ 1.55 µM) | 4 (≈ 6.18 µM) | 4 (≈ 6.18 µM) | > 125 | > 125 | 16 (≈ 24.7 µM)
